# Molecular target: T1, UBE2O C375 (Q9C0C9) (Homo sapiens, UniProt Q9C0C9)
# T1 sequence (Q9C0C9 1-1292): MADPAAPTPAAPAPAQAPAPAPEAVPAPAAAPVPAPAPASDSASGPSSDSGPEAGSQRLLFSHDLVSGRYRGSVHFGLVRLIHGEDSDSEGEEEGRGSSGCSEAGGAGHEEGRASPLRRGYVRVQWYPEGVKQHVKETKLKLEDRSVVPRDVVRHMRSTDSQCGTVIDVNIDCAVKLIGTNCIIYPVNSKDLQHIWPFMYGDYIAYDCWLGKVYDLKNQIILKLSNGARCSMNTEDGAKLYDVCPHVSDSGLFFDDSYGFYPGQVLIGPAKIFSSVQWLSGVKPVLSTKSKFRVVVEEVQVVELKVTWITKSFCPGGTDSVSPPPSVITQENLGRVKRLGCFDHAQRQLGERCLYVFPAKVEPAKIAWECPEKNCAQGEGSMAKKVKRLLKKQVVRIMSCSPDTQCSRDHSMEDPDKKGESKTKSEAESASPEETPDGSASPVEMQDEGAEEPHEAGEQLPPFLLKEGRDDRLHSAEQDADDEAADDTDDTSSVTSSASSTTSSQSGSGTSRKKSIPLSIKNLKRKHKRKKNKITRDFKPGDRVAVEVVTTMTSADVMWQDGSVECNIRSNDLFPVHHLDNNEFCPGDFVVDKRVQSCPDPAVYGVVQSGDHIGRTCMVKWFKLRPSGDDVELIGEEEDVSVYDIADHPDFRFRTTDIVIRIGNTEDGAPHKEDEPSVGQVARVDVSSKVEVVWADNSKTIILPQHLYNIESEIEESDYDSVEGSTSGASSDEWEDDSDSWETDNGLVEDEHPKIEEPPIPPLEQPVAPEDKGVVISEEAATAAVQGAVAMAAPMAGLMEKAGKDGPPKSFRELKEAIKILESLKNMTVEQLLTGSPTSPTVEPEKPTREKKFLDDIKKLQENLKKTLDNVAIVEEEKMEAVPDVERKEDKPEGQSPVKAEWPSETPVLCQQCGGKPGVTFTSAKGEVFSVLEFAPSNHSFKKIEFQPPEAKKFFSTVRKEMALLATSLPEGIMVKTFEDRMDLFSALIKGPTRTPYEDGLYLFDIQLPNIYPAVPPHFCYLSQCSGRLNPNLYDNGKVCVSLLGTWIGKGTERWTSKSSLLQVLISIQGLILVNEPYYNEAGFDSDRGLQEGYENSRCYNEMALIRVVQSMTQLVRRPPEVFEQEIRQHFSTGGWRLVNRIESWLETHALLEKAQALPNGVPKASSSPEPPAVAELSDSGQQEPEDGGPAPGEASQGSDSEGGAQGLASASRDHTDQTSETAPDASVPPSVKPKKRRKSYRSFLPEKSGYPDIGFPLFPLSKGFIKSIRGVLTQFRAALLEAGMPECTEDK
# Assay: Competitive isoTOP-ABPP, cell lysates
# Assay type: binding
compound,measurement,setting,value
O=C(CCl)Nc1cc(C(F)(F)F)cc(C(F)(F)F)c1 [compound 3],R value (DMSO/fragment),"500 μM, in vitro, MDA-MB-231",9.8
same,R value (DMSO/fragment),"500 μM, invitro, ramos",4.1
O=C(CCl)N1CCN(S(=O)(=O)c2ccccc2F)CC1 [compound 10],"isoTOP-ABPP ratio, Q9C0C9_C375","500 μM, invitro, ramos",0.8
O=C(CCl)NC12CC3CC(CC(C3)C1)C2 [compound 21],"isoTOP-ABPP ratio (reactivity profile), Q9C0C9_C375",500 μm in-vitro ramos,2.4
N#C/C(=C\c1cc(C(F)(F)F)cc(C(F)(F)F)c1)C(N)=O [compound 23],"isoTOP-ABPP ratio (reactivity profile), Q9C0C9_C375",500 μm in-vitro ramos,1.4
CC(C)CCOCCNC(=O)CCl [compound 27],"isoTOP-ABPP ratio (reactivity profile), Q9C0C9_C375",500 μm in-vitro ramos_231,0.7
O=C(CCl)Nc1cccc2ncccc12 [compound 51],"isoTOP-ABPP reactivity profile ratio, Q9C0C9_C375","500 μm, in-vitro_ramos",0.8

# Reference: US10670605B2, “Cysteine reactive probes and uses thereof” (The Scripps Research Institute, priority 2015, dated 2020)
